Source: ChEMBL document CHEMBL4177530, “Bufospirostenin A and Bufogargarizin C, Steroids with Rearranged Skeletons from the Toad Bufo bufo gargarizans” (J Nat Prod, 2017)
The source made the active and inactive calls. No cut-off for these calls is given here.

What was measured:
Sus scrofa [1] = organism: Sus scrofa; experiment: Inhibition of Na/K-ATPase in pig kidney microsomal membranes assessed as reduction in inorganic phosphate release from ATP at 12.5 uM incubated for 15 mins by spectrophotometry; assay type: cell membranes
Sus scrofa [2] = organism: Sus scrofa; experiment: Inhibition of Na/K-ATPase in pig kidney microsomal membranes assessed as reduction in inorganic phosphate release from ATP at 25 uM incubated for 15 mins by spectrophotometry; assay type: cell membranes

| inhibition (Sus scrofa [1]) | inhibition (Sus scrofa [2]) | SMILES |
| --- | --- | --- |
| inactive | inactive | C[C@]12CCC3=C(C=CC4=C(C3)[C@@H]3C[C@H](C4)O3)[C@H]1CC[C@@H]2c1ccc(=O)oc1 |
| 21% | 43% | C=C1CC[C@@]2(OC1)O[C@H]1C[C@H]3[C@@H]4CC=C5C[C@@H](O)C[C@H]5[C@](C)(O)[C@H]4CC[C@]3(C)[C@H]1[C@@H]2C |

| SMILES | inhibition (Sus scrofa [1]) | inhibition (Sus scrofa [2]) |
| --- | --- | --- |
| C[C@]12CC[C@H](O)C[C@H]1CC[C@@H]1[C@@H]2CC[C@]2(C)[C@@H](c3ccc(=O)oc3)CC[C@]12O | 100% | 100% |
